Test results taken from PubChem BioAssay AID2305 (GlaxoSmithKline (GSK), 2010).

These compounds were tested on P. falciparum 3D7 growth, pLDH absorbance (assay: P. falciparum 3D7 growth inhibition, dose response, strain 3D7 (AID 2305)).
`Cc1cccc2[nH]c(-c3ccc(-c4cccc(NC(=O)NCc5cccc(F)c5)c4)s3)nc12` gave an IC50 of 0.76 µM.
`CS(=O)(=O)CCNCc1cccc(-c2ccc3c(Nc4cc(O)c(Cl)cc4F)ccnc3c2)c1` showed an IC50 of 0.25 µM.
`COc1ccc(Cl)cc1N1CCN(CCCNC(=O)c2ccc(-c3nc4cc(Cl)c(C)cc4[nH]3)c(F)c2)CC1` gave an IC50 of 0.18 µM.
With `CCc1cc(C(=O)c2cccc(C)c2)c(NC(=O)CN2CCN(C(=O)c3ccco3)CC2)s1` the IC50 was 0.45 µM.
For `O=C(Cn1c(CCc2cccc(F)c2F)nc(=O)c2ccccc21)N(Cc1ccc(-c2ccc(C(F)(F)F)cc2)cc1)C1CCN(C2CCSCC2)CC1`, the IC50 was 0.86 µM.
In the case of `O=C(CCc1cnc[nH]1)Nc1cccc(-c2ccc(-c3nc4ccc(F)cc4[nH]3)cc2)c1`, the IC50 is reported as 0.24 µM.
Compound `CCOc1cc(Cc2cnc(N)nc2N)cc(OCC)c1OCC` has an IC50 of 0.28 µM.
`CCCOc1ccc(N2C(N)=NC(N)=NC2(C)C)cc1` was tested, and the IC50 was 0.49 µM.
For `CCOc1cc(CC)ccc1C1CCN(CCN2CCC(CNC(=O)c3ccc(-c4ccc(C#N)cc4)cc3)CC2)CC1`, the IC50 was 0.71 µM.
Work on `CC(C)c1ccc(N(CC(=O)N/N=C/c2ccc(C(F)(F)F)cc2)S(=O)(=O)c2ccc(C(F)(F)F)cc2)cc1` yielded an IC50 of 0.85 µM.
For `COc1cccc(CNC[C@@H](O)[C@H](Cc2ccccc2)NC(=O)c2cc(C(C)C)cc(N3CCCC3=O)c2)c1`, the IC50 was 0.95 µM.
`CCCN(CCC)C(=O)c1cc(-c2cccc(C)c2)nc2ccccc12` was tested, and the IC50 was 1.06 µM.
In the case of `CNS(=O)(=O)c1ccc2c(c1)nc(C1CCN(CC3CCC(NC(=O)/C=C/c4ccc(Cl)c(Cl)c4)CC3)CC1)n2C` (configuration not stated), the IC50 is reported as 0.67 µM.
In the case of `CC(C)C[C@H](NC(=O)c1cc2ccccc2s1)C(=O)N[C@H]1CCN(Cc2ccc(OC[C@@H]3CCCN3C)c(Cl)c2)C1`, the IC50 is reported as 0.85 µM.
For `COc1cc2nc(C)nc(Nc3ccc(Cc4ccccc4)cc3)c2cc1OC`, the IC50 was 0.73 µM.
In the case of `CN1CCN(c2cc(NC(=O)c3ccc(-c4ccc(C#N)cc4)cc3)ccc2Cl)CC1`, the IC50 is reported as 0.46 µM.
Compound `COc1ccc2ccccc2c1C=NNc1cc(C)nc2c(C)cccc12` has an IC50 of 0.82 µM.
With `COc1ccc2nccc([C@@H](O)CN3CCC(NC(=O)c4ccc(Cl)c(Cl)c4)CC3)c2c1` the IC50 was 0.61 µM.
For `CCCCCCCCCC(=O)NCC1CC(Br)=NO1` (configuration not stated), the IC50 was 1.05 µM.
For `COC(=O)Nc1ccc(-c2ccc(C(=O)NC3CCN(C[C@H](O)c4ccnc5ccc(OC)cc45)CC3)cc2)c(C)c1`, the IC50 was 0.69 µM.
`Cc1cc(C)c(CC(C)NCC(O)c2cccc(C(F)(F)F)c2)c(C)c1` (configuration not stated) showed an IC50 of 0.57 µM.
`CCOc1cc(C(=O)NCCN2CCCCC2)ccc1-c1nc2ccc(Cl)cc2[nH]1` gave an IC50 of 1.08 µM.
For `O=C(/C=C/c1ccc(C(F)(F)F)cc1)NCCCCCN1CCC(c2c[nH]c3ccccc23)CC1`, the IC50 was 0.68 µM.
`O=C(Nc1ccc(Cl)cc1)Nc1cccc(-c2cccc(-c3nc4ccc(F)cc4[nH]3)c2)c1` was tested, and the IC50 was 0.22 µM.
For `CC(=O)N[C@H](C(=O)Nc1ccc(-c2ccc(-c3nc4ccc(C(F)(F)F)cc4[nH]3)s2)cc1)C(C)C`, the IC50 was 1.03 µM.
For `NC1=NC(c2ccccc2)(c2ccccc2)C(=O)N1Cc1ccccc1Br`, the IC50 was 0.86 µM.
With `COc1ccc(S(=O)(=O)N2CCC(NS(=O)(=O)c3ccc(F)cc3)CC2)cc1` the IC50 was 1.33 µM.
With `c1ccc2c(c1)CN(Cc1cc3ccccc3[nH]1)CC1(CCN(Cc3c[nH]c4cnccc34)CC1)O2` the IC50 was 0.31 µM.
In the case of `C=CCOc1ccc2ccccc2c1CNCCCCCCNCc1c(OCC=C)ccc2ccccc12`, the IC50 is reported as 0.86 µM.
Compound `CC(=O)c1ccc(-c2ccc(C(=O)NCCCCN3CCC(c4ccc5c(c4O)CCCC5)CC3)cc2)cc1` has an IC50 of 0.76 µM.
With `COc1cc2nccc(Nc3ccc(Oc4ccccc4)cc3)c2cc1OC` the IC50 was 0.68 µM.
Compound `Cc1ccc([C@@H]2CC(=O)CC(c3ccccn3)[C@H]2[N+](=O)[O-])cc1` (some centres not stated) has an IC50 of 0.86 µM.
`CCCN(CCC)CCCCC(C)Nc1c2ccc(Cl)cc2nc2ccc(OC)cc12` (configuration not stated) showed an IC50 of 0.14 µM.
Compound `CCn1c(-c2nonc2N)nc2c(-c3cccc(Cl)c3)ncc(OCCCNCCc3cnc[nH]3)c21` has an IC50 of 0.98 µM.
For `COc1ccc(Cc2nc3c(n2C(C)=O)SC(c2ccc(Cl)c(Cl)c2)=NN3C(C)=O)cc1`, the IC50 was 0.81 µM.
In the case of `CCCc1cn2c3c(cc(C(=O)N[C@@H](Cc4ccccc4)[C@H](O)CNC4CCOCC4)cc13)N(C)S(=O)(=O)CC2`, the IC50 is reported as 0.05 µM.
In the case of `Nc1nc(N)c2c(ccc3nn(C4CCCC4)cc32)n1`, the IC50 is reported as 0.29 µM.
